# Experiments:
# [1] = tested on: C-terminal FGF23 (cFGF23); experiment: Example 3 trial: plasma C-terminal FGF23; type: in vivo, human; details: for effect on cFGF23 levels: in vivo; for lowering of cFGF23 levels within 24 hours: intravenous iron in iron deficient women; for C-terminal FGF23, Day 1 / C-terminal FGF23, Day 7 / C-terminal FGF23, Day 14 / C-terminal FGF23, Day 35: mean ± standard error, unit from the 3rd table
# Procedure: Study visits were on Days 0 (when iron was infused), 1 (24 hours after iron infusion), 7, 14, and 35. The primary objectives were to determine the effect of iron deficiency on cFGF23 and iFGF23 levels and the effect of intravenous iron on iFGF23 and cFGF23 levels.
# Randomization occurred centrally via a fax-based system. […] The complete dose was infused over 15 minutes on day 0. […] An initial test dose of 25 mg was administered slowly over 5 minutes.
# Laboratory testing of blood and three-hour urine collections was performed at the screening visit and on study days 0 (when iron was infused), 1 (24 hours after iron infusion), 7, 14, and 35 (see e.g., FIG. 2A). Any subject who experienced a reduction in serum phosphate below the normal range after day 0 underwent additional phosphate measurements at 14 day intervals following day 35 until the level returned to the normal reference range. Safety evaluations of all subjects included ascertainment of adverse events, physical examinations at all study visits, and laboratory assessments. Any subject who withdrew from the study received a follow-up phone call to ascertain adverse events 30 days after they received study drug.
# Blood and urine samples were sent to a central laboratory for analysis (Covance Central Laboratory Service, Indianapolis, Ind.). Hemoglobin, blood counts, iron indices, electrolytes, and serum and urinary phosphate and creatinine were measured with standard, automated, multi-analyte techniques. Urinary fractional excretion of phosphate (FEPi) was calculated from the three-hour, morning urine collections as urinary phosphate x serum creatinine/serum phosphate x urinary creatinine. Serum levels of 25-hydroxyvitamin D and 1,25-dihydroxyvitamin D were measured in duplicate by radioimmunoassay (DiaSorin, Stillwater, Minn.) with intra-assay coefficients of variation (CV)<11.6%. Plasma C-terminal FGF23 (cFGF23) was measured in duplicate in EDTA-plasma samples using a human FGF23 immunometric assay capable of detecting both the intact peptide and its C-terminal fragments (Immutopics, San Clemente, Ca) with intra-assay CV≦3.8%. Because cFGF23 testing was performed in parallel with rolling enrollment and follow-up, all cFGF23 assay plates tested combinations of baseline and post-intervention samples from multiple study participants. Serum intact FGF23 (iFGF23) was measured in batches of baseline and post-intervention samples from multiple study participants at study end using an immunometric assay that detects the intact peptide exclusively (Kyowa Medex Company, Shizuoka, Japan) with intra-assay CV<2.7%. Serum hepcidin levels were measured on days 0, 7, and 35 using an enzyme-linked immunosorbent assay (Intrinsic LifeSciences, La Jolla, Calif.) with intra-assay CV≦19%. Urinary amino acids, glucose, albumin, and beta 2 microglobulin were measured to test for the possibility of global proximal tubular dysfunction. Urinary deoxypyridinoline cross link, and serum osteocalcin and bone-specific alkaline phosphatase were measured to assess bone turnover.
# Baseline characteristics are presented as mean±standard error for continuous variables and as proportions for categorical variables. The association between iron indices and baseline and change in FGF23 levels was assessed with Spearman correlations. Restricted maximum likelihood-based repeated measures analyses (linear mixed models) that considered the effects of treatment, visit, and treatment x time interaction, with baseline values treated as a fixed covariate were used for the primary analyses of mean changes from baseline in continuous markers of phosphate homeostasis. The models employed unstructured covariance structures without imputing missing values. All outcome variables that were not normally distributed were analyzed after natural log-transformation. […]
# [2] = VIT-30 safety: composite cardiovascular endpoint and adverse events; type: in vivo
# Procedure: Study visits were on Days 0, 3, 7, 10, 14, 28, 56, and 120. A phone assessment occurred on Day 90.
# The Venofer Group received 5 doses of Venofer, 200 mg for a total dose of 1,000 mg.
# For Venofer, subjects received, as an IV push injection over 2 to 5 minutes, 200 mg on Days 0, 7, and 14 with 2 additional doses given: 1 between Days 0 and 7 and the other between Days 7 and 14 (i.e., for a total of 5 doses [1,000 mg]).
# For safety, the primary measure was the proportion of subjects experiencing treatment-emergent adverse event included in the primary composite safety endpoint. Treatment-emergent events included events that started on or after the first dose of randomized treatment. The composite safety endpoint included: deaths due to any cause; nonfatal myocardial infarction; nonfatal stroke; unstable angina requiring hospitalization; congestive heart failure requiring hospitalization or medical intervention; arrhythmias; protocol-defined hypertensive events; and protocol-defined hypotensive events. These events were adjudicated in a blinded fashion. Supportive safety measures included: proportion of subjects who died (all cause mortality); time to first event comprising the primary composite safety endpoint; proportion of subjects reporting treatment-emergent adverse events, overall and related; proportion of subjects reporting treatment-emergent serious adverse events, overall and related; incidence of treatment-emergent potentially clinically significant (PCS) clinical laboratory values; and incidence of treatment-emergent PCS vital sign values.
# The Safety Population consisted of all subjects who received a dose of randomized treatment. All safety analyses were performed with the Safety Population.
# Safety assessments were summarized for the Safety Population unless stated otherwise. Subjects were analyzed under the treatment actually received.
# The precision of the estimated treatment group difference was measured by the width of the 95% CI.
# The number and percent of subjects who reported treatment-emergent adverse events were summarized for each treatment group. A treatment-emergent adverse event was an event that began after receipt of randomized treatment.
# The adverse event profile was characterized with severity (as graded by Version 3.0 of the NCI CTCAE) and relationship (unrelated and related) to study drug. Related adverse events were events that were possibly or probably related to treatment in the Investigator's judgment. Events with unknown severity or relationship were counted as unknown.
# The number and percent of subjects who reported treatment-emergent serious adverse events were similarly summarized for each treatment group. The number and percent of subjects who reported treatment-emergent adverse events resulting in discontinuation of study drug were similarly summarized for each treatment group.
# Time to the first adverse event comprising the primary composite safety endpoint was summarized with the Kaplan-Meier approach. […] The log-rank statistic were used to compare time-to-event curves between treatment groups and a 95% CI of the hazard ratio was calculated with a Cox proportional hazards model.
# dextran antibodies = experiment: Dextran antigenicity test
# Source text: FCM can mimic physiologically occurring ferritin. FCM is metabolized by the glycolytic pathway.
substance,measurement,setting,value
iron dextran [reference compound],"C-terminal FGF23, Change from baseline",[1]; Day 1,−82.5%
same,"C-terminal FGF23, Change from baseline",[1]; Day 7,−85.6%
same,"C-terminal FGF23, Change from baseline",[1]; Day 14,−87.3%
same,"C-terminal FGF23, Change from baseline",[1]; Day 35,−80.0%
same,effect on cFGF23 levels,[1],rapidly lowered
same,lowering of cFGF23 levels within 24 hours,[1],80%
same,"C-terminal FGF23, Day 1",[1],152 ± 17.5 RU/mL
same,"C-terminal FGF23, Day 7",[1],114 ± 17.7 RU/mL
same,"C-terminal FGF23, Day 14",[1],107 ± 16.0 RU/mL
same,"C-terminal FGF23, Day 35",[1],170 ± 51.2 RU/mL
"polynuclear iron (III)-hydroxide 4(R)-(poly-(1→4)-O-α-glucopyranosyl)-oxy-2(R),3(S),5(R),6-tetrahydroxy-hexanoate [FCM]",tolerability,[2]; 2 injections of 750 mg,well tolerated
same,subjects who discontinued the study or study drug subsequent to a protocol-defined hypertensive event,[2]; 10 subjects,10.5%
same,hazard ratio (FCM versus Venofer) excluding protocol-defined hypertensive and hypotensive events,[2]; Cox proportional hazards,1.017
same,"hazard ratio (FCM versus Venofer) for death due to any cause, nonfatal myocardial infarction, or nonfatal stroke",[2]; Cox proportional hazards,0.685
same,protocol-defined hypertensive events,[2]; component of primary composite safety endpoint,7.45%
same,drug related treatment emergent adverse event: dizziness,[2]; in vivo,2.4%
same,drug related treatment emergent adverse event: flushing,[2]; in vivo,3.0%
same,drug related treatment emergent adverse event: hypertension,[2]; in vivo,4.6%
same,drug related treatment emergent adverse event: nausea,[2]; in vivo,8.6%
same,drug related treatment emergent adverse event: vomiting,[2]; in vivo,2.0%
same,serious adverse event: cardiac failure congestive,[2]; in vivo,2.4%
same,subjects prematurely discontinued from study drug due to adverse events,[2]; in vivo,2.6%
same,subjects with Grade 3 treatment emergent adverse events,[2]; in vivo,12.9%
same,subjects with Grade 4 treatment emergent adverse events,[2]; in vivo,4.7%
same,subjects with Grade 5 (fatal) treatment emergent adverse events,[2]; in vivo,1.2%
same,"subjects with adjudicated events of death due to any cause, nonfatal myocardial infarction, or nonfatal stroke",[2]; in vivo,1.88%
same,subjects with adverse event that resulted in discontinuation from the study,[2]; in vivo,2.4%
same,subjects with at least 1 serious adverse event,[2]; in vivo,15.8%
same,subjects with at least 1 treatment emergent adverse event,[2]; in vivo,65.4%
same,treatment emergent adverse event: hypertension,[2]; in vivo,10.7%
same,treatment emergent adverse event: nausea,[2]; in vivo,13.5%
same,subjects with at least 1 drug related treatment emergent adverse event,[2]; possibly or probably related,23.4%
same,specific responses in a dextran antigenicity test,dextran antibodies,no specific responses
same,"C-terminal FGF23, Change from baseline",[1]; Day 1,−78.6%
same,"C-terminal FGF23, Change from baseline",[1]; Day 7,−80.9%
same,"C-terminal FGF23, Change from baseline",[1]; Day 14,−77.5%
same,"C-terminal FGF23, Change from baseline",[1]; Day 35,−78.9%
same,effect on cFGF23 levels,[1],rapidly lowered
same,lowering of cFGF23 levels within 24 hours,[1],80%
same,"C-terminal FGF23, Day 1",[1],177 ± 12.4 RU/mL
same,"C-terminal FGF23, Day 7",[1],165 ± 34.9 RU/mL
same,"C-terminal FGF23, Day 14",[1],170 ± 55.8 RU/mL
same,"C-terminal FGF23, Day 35",[1],182 ± 73.7 RU/mL
same,cFGF23 in FCM subjects who did vs did not develop serum phosphate<2.0 mg/dL,[1]; stratified analysis,decreased similarly in both groups

# Reference: patent US20140162974A1, “METHODS FOR MODULATION OF PHOSPHORUS AND FGF23” (Luitpold Pharmaceuticals, Inc., priority 2012, published 2014)
